Assay results published in US9464064B2, “HCV helicase inhibitors and methods of use thereof” (University of Kansas, priority 2011, dated 2016).
Where two headings read alike, the source gives them in different places.

Assays:
[1] = target: T1, NS3h_2a(JFH1) (Hepatitis C virus genotype 2a, UniProt Q99IB8); experiment: MBHA, DNA substrate, genotype 2a helicase; type: biochemical, hepatitis C virus genotype 2a(JFH1)
T1 construct: truncated C-terminally His-tagged NS3 proteins lacking the N-terminal protease, called NS3h; His-tag (C); made in house
Description: All oligonucleotides were purchased from Integrated DNA Technologies (IDT, Coralville, Iowa). Primuline derivatives were synthesized and purified as described herein. Three different NS3 proteins were used in this study. Two were truncated C-terminally His-tagged NS3 proteins lacking the N-terminal protease, called NS3h, the third was a full-length NS3 with the portion of NS4A needed for protease activation fused to its N-terminus, called scNS4A-NS3 (Howe, et al. (1999) Protein Sci. 8:1332-41), and the fourth was a 23 kDa scNS4A-NS3 protease fragment lacking the helicase domains, called scNS4A-NS3p (Protein One, Rockville, Md.). NS3h was expressed from two different HCV strains. NS3h_1b(con1) was from the con1 strain of genotype 1b (GENBANK accession AB114136), and NS3h_2a(JFH1) was from the JFH1 strain of HCV genotype 2a (GENBANK accession AJ238799). […] His-tagged recombinant NS3h_1b(con1), NS3h_2a(JFH1), and scNS4A-NS3 (also from genotype 1b(con1)) were expressed, and purified as previously described (Frick, et al. (2010) supra; Lam, et al. (2003) J. Virol. 77:3950-3961). The scNS4A-NS3p (genotype 1b) was from Protein One. A plasmid expressing NS3h from dengue virus strain 2 (NS3h_DV2)(GENBANK accession 2BMF) is known in the art (Xu, et al. (2005) J. Virol. 79:10278-10288), and used to express and purify NS3h_DV2 (Belon, et al. (2010) supra)
Compounds that specifically target less conserved regions of a HCV protein are often not potent inhibitors of the same protein derived from other genotypes, and they might be susceptible to rapid evolution of related viruses. As described herein, primuline derivatives can inhibit HCV helicase isolated from the genotype 1b(con1) strain. Therefore to further analyze specificity, the subset of primuline analogs was tested on the helicase isolated from the genotype 2a(JFH1) strain. The two recombinant proteins differ at 83 of their 480 amino acids. The JHF1 strain is also of interest because it serves as the backbone for HCV strains capable of replicating in cell culture (Wakita, et al. (2005) Nat. Med. 11:791-796). The molecular beacon-based helicase assay (MBHA) (Belon & Frick (2008) supra) was used to measure the ability of each compound to inhibit DNA unwinding catalyzed by NS3h isolated from genotype 2a(JFH1) (NS3h_2a(JFH1)). […] Selected compounds were also tested for the ability to inhibit helicase reactions catalyzed by full-length NS3 and a single chain NS4A-NS3 protein (scNS4A-NS3) described below and used for protease assays.

[2] = target: T2, HCV NS3 helicase NS3h_1b(con1) (Hepatitis C virus genotype 1b, UniProt Q9WMX2); experiment: biochemical; type: biochemical, hepatitis C virus genotype 1b(con1)
T2 construct: truncated C-terminally His-tagged NS3 proteins lacking the N-terminal protease, called NS3h; His-tag (C); made in house
Summary of the method: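 Molecular beacon helicase assay with His-tagged recombinant NS3 and a Cy5/IBRQ-labelled partially duplex DNA substrate (25 bp) or Tye665-labelled RNA substrate (19 bp). Reactions started with 1 mM ATP. Screening read fluorescence before and 30 min after ATP (ex 643/em 670 nm). For IC50, 5% v/v DMSO was present, initial velocities came from first-order decay fits, and a Hill equation was applied.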

[3] = genotype 2a (JFH1), read-out: Target Potency MBHA (IC50 avg., μM) 2a (JFH1) (converted)
[4] = MBHA, DNA unwinding, mean ± SD of three titrations, read-out: Helicase IC50
[5] = genotype 1b (con1), read-out: Target Potency MBHA (IC50 avg., μM) 1b (con1)
[6] = standard HCV helicase MBHA (Table 9), read-out: DNA Unwinding IC50
[7] = DNA-based MBHA, genotype 2a(JFH1), read-out: DNA Helicase NS3h_2a IC50 (μM) ± SD
[8] = DNA-based MBHA, genotype 1b, read-out: DNA Helicase NS3h_1b IC50 (μM) ± SD

T2 sequence (Q9WMX2 1192-1657): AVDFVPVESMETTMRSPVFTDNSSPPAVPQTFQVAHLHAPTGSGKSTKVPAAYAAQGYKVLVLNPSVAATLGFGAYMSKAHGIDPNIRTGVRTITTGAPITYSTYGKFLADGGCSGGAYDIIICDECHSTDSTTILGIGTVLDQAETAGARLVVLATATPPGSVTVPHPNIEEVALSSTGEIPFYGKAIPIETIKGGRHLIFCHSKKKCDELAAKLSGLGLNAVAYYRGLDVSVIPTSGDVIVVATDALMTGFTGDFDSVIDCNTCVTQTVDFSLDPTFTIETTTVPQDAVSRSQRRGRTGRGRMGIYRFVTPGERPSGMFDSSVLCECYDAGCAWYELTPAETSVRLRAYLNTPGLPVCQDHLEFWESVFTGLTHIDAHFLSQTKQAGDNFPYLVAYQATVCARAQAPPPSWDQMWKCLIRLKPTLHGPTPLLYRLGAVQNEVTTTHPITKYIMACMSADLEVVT
T1 sequence (Q99IB8 1196-1661): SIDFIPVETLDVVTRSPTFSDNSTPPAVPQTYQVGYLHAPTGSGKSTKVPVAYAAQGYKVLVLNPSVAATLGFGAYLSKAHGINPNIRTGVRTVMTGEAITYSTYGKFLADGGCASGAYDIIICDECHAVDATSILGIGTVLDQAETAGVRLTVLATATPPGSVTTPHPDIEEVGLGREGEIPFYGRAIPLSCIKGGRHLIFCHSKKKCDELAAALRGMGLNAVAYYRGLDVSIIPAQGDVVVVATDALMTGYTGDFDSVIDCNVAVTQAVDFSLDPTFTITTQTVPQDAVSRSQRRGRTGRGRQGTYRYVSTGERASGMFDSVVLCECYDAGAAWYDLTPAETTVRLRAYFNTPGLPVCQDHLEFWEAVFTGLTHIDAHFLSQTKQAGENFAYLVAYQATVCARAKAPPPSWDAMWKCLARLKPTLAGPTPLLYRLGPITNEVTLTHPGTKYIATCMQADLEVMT

Row | Compound | IC50 [1, 3] | IC50 [2, 4] | IC50 [2, 5] | IC50 [2, 6] | IC50 ([1]; Target Potency MBHA (IC50 avg., μM) 2a (JFH1), genotype 2a (JFH1)) | IC50 ([2]; DNA Unwinding IC50, standard HCV helicase MBHA (Table 9)) | IC50 ([2]; Helicase IC50, MBHA, DNA unwinding, mean ± SD of three titrations) | IC50 ([2]; Target Potency MBHA (IC50 avg., μM) 1b (con1), genotype 1b (con1)) | IC50 [1, 7] | IC50 [2, 8]
1 | Cc1ccc(C(=O)Nc2ccc(-c3nc4ccc(-c5nc6ccc(C)c(S(=O)(=O)O)c6s5)cc4s3)cc2)cc1 [Compound 11, 6-methyl-2′-(4-(4-methylbenzamido)phenyl)-[2,6′-bibenzo[d]thiazole]-7-sulfonic acid] | 2.5 ± 0.5 µM | 3.3 ± 0.3 µM | 3.3 ± 0.3 µM | 3 µM | – | – | – | – | – | –
2 | Cc1ccc2nc(-c3ccc4nc(-c5ccc(NC(=O)c6ccc7nc(-c8ccc(NC(=O)OCC9c%10ccccc%10-c%10ccccc%109)cc8)sc7c6)cc5)sc4c3)sc2c1S(=O)(=O)O.N [Compound 36] | 1.9 µM | 4 ± 2.4 µM | 4 ± 2.4 µM | 4 ± 2 µM | – | – | – | – | – | –
3 | Cc1ccc2nc(-c3ccc4nc(-c5ccc(NC(=S)Nc6ccccc6)cc5)sc4c3)sc2c1S(=O)(=O)O.N [Compound 50] | 9.6 µM | – | 9.3 ± 3.8 µM | 9 ± 4 µM | – | – | – | – | – | –
4 | Cc1ccc2nc(-c3ccc4nc(-c5ccc(NC(=O)c6cc(F)ccc6C(F)(F)F)cc5)sc4c3)sc2c1S(=O)(=O)O [Compound 26, 2′-(4-(5-fluoro-2-(trifluoromethyl)benzamido)phenyl)-6-methyl-[2,6′-bibenzo[d]thiazole]-7-sulfonic acid] | 16.6 ± 2 µM | 19 ± 15 µM | 19 ± 15 µM | 19 ± 15 µM | – | – | – | – | – | –
5 | Cc1ccc2nc(-c3ccc4nc(-c5ccc(NC(=O)c6ccc(Cl)cc6)cc5)sc4c3)sc2c1S(=O)(=O)O [Compound 10, 2′-(4-(4-chlorobenzamido)phenyl)-6-methyl-[2,6′-bibenzo[d]thiazole]-7-sulfonic acid] | – | – | – | – | 2.3 ± 0.5 µM | 3 µM | 3.4 ± 0.3 µM | 3.4 ± 0.3 µM | – | –
6 | Cc1ccc2nc(-c3ccc4nc(-c5ccc(NC(=O)Nc6ccc(C(F)(F)F)cc6)cc5)sc4c3)sc2c1S(=O)(=O)O.N [Compound 47] | 4 µM | – | 5.1 ± 3.3 µM | 5 ± 3 µM | – | – | – | – | – | –
7 | Cc1ccc(NC(=O)Nc2ccc(-c3nc4ccc(-c5nc6ccc(C)c(S(=O)(=O)O)c6s5)cc4s3)cc2)cc1 [Compound 28, 6-methyl-2′-(4-(3-(p-tolyl)ureido)phenyl)-[2,6′-bibenzo[d]thiazole]-7-sulfonic acid] | 4 µM | 5.3 ± 0.9 µM | 5.3 ± 0.9 µM | 5 ± 1 µM | – | – | – | – | – | –
8 | Cc1ccc2nc(-c3ccc4nc(-c5ccc(NCc6ccccc6)cc5)sc4c3)sc2c1S(=O)(=O)O [Compound 53] | 13.5 µM | – | 11 ± 1.6 µM | 11 ± 2 µM | – | – | – | – | – | –
9 | Cc1ccc2nc(-c3ccc4nc(-c5ccc(NC(=O)c6ccc7nc(-c8ccc(N)cc8)sc7c6)cc5)sc4c3)sc2c1S(=O)(=O)O [Compound 35, 2′-(4-(2-(4-aminophenyl)benzo[d]thiazole-6-carboxamido)phenyl)-6-methyl-[2,6′-bibenzo[d]thiazole]-7-sulfonic acid] | 3.5 µM | 5.5 ± 2.1 µM | 5.5 ± 2.1 µM | 6 ± 2 µM | – | – | – | – | 3 ± 1.2 µM | 6 ± 2.1 µM
10 | Cc1ccc2nc(-c3ccc4nc(-c5ccc(NC(=O)c6ccc(Br)cc6)cc5)sc4c3)sc2c1S(=O)(=O)O [Compound 15, 2′-(4-(4-bromobenzamido)phenyl)-6-methyl-[2,6′-bibenzo[d]thiazole]-7-sulfonic acid] | 7.4 ± 3 µM | 5.2 ± 4 µM | 5.2 ± 4 µM | 5 ± 4 µM | – | – | – | – | 7 ± 3.3 µM | 5 ± 3.9 µM
11 | Cc1ccc2nc(-c3ccc(NC(=O)c4ccc(N)cc4)cc3)sc2c1S(=O)(=O)O | 64 µM | – | 69 ± 26 µM | – | – | – | – | – | – | –
12 | Cc1ccc2nc(-c3ccc4nc(-c5ccc(NC(=O)c6ccc(N(C)C)cc6)cc5)sc4c3)sc2c1S(=O)(=O)O [Compound 14, 2′-(4-(4-(dimethylamino)benzamido)phenyl)-6-methyl-[2,6′-bibenzo[d]thiazole]-7-sulfonic acid] | 6.4 ± 1.2 µM | 11 ± 6.7 µM | 11 ± 6.7 µM | 11 ± 7 µM | – | – | – | – | – | –
13 | Cc1ccc2nc(-c3ccc4nc(-c5ccc(NC(=O)c6cc(C(F)(F)F)cc(C(F)(F)F)c6)cc5)sc4c3)sc2c1S(=O)(=O)O [Compound 24, 2′-(4-(3,5-bis(trifluoromethyl)benzamido)phenyl)-6-methyl-[2,6′-bibenzo[d]thiazole]-7-sulfonic acid] | 28.7 ± 5 µM | 22 ± 4 µM | 22.2 ± 4 µM | 22 ± 4 µM | – | – | – | – | 29 ± 5.2 µM | 22 ± 4.2 µM
14 | Cc1ccc2nc(-c3ccc4nc(-c5ccc(NC(=O)c6ccc(N)cc6)cc5)sc4c3)sc2c1S(=O)(=O)O [Compound 6, 2′-(4-(4-aminobenzamido)phenyl)-6-methyl-[2,6′-bibenzo[d]thiazole]-7-sulfonic acid] | 5.3 ± 2.5 µM | 10 ± 2.4 µM | 10.3 ± 2.4 µM | 10 ± 2 µM | – | – | – | – | 5 ± 2.5 µM | 10 ± 2.4 µM
15 | Cc1ccc2nc(-c3ccc(NC(=O)c4ccc(C(F)(F)F)cc4)cc3)sc2c1S(=O)(=O)O | > 100 µM | – | > 100 µM | – | – | – | – | – | – | –
